# Source: ChEMBL document CHEMBL4000218, “Explicit treatment of active-site waters enhances quantum mechanical/implicit solvent scoring: Inhibition of CDK2 by new pyrazolo[1,5-a]pyrimidines” (Eur J Med Chem, 2017)
# Target: Cyclin-dependent kinase 2/cyclin E1 (Homo sapiens, UniProt P24941)
# Assay: Inhibition of CDK2/cyclin E (unknown origin) expressed in baculovirus infected insect Sf9 cells using histone H1 as substrate in presence of [gamma-33P]ATP
row,Structure (SMILES),IC50 [nM]
1,NC(=O)c1ccc(-c2ccc(-c3cc(NCc4cccnc4)n4ncc(Br)c4n3)cc2)cc1O,52
2,c1ccc(-c2ccc(-c3cc(NCc4cccnc4)n4nccc4n3)cc2)cc1,12600
3,NC(=O)c1ccc(-c2ccc(-c3cc(NCc4cccnc4)n4nccc4n3)cc2)cc1,3940
4,CCc1cnn2c(NCc3cccnc3)cc(-c3ccc(-c4ccc(CO)cc4)cc3)nc12,130
5,N#CCCc1cc(-c2ccc(-c3cc(NCc4cccnc4)n4ncc(Br)c4n3)cc2)ccc1C(N)=O,53
6,CCc1cnn2c(NCc3cccnc3)cc(-c3ccc(-c4ccc(C(N)=O)cc4)cc3)nc12,18
7,CN(C)C(=O)c1ccc(-c2ccc(-c3cc(NCc4cccnc4)n4ncc(Br)c4n3)cc2)cc1,64
8,CN(C)C(=O)c1ccc(-c2ccc(-c3cc(NCc4cccnc4)n4nccc4n3)cc2)cc1,1970
9,NC(=O)c1ccc(-c2ccc(-c3cc(NCc4cccnc4)n4nccc4n3)cc2)cc1O,2670
10,Nc1ccc(-c2ccc(-c3cc(NCc4cccnc4)n4ncc(Br)c4n3)cc2)cc1,140
11,N#CCCc1cc(-c2ccc(-c3cc(NCc4cccnc4)n4nccc4n3)cc2)ccc1C(N)=O,5450
12,Oc1ccc(-c2ccc(-c3cc(NCc4cccnc4)n4ncc(Br)c4n3)cc2)cc1,140

# Continued, values first:
row,IC50 [nM],Structure (SMILES)
1,15,NC(=O)c1ccc(-c2ccc(-c3cc(NCc4cccnc4)n4ncc(Br)c4n3)cc2)c(O)c1
2,3860,Oc1ccc(-c2ccc(-c3cc(NCc4cccnc4)n4nccc4n3)cc2)cc1
3,45,OCc1ccc(-c2ccc(-c3cc(NCc4cccnc4)n4ncc(Br)c4n3)cc2)cc1
4,490,Brc1cnn2c(NCc3cccnc3)cc(-c3ccc(-c4ccccc4)cc3)nc12
5,6110,OCc1ccc(-c2ccc(-c3cc(NCc4cccnc4)n4nccc4n3)cc2)cc1
6,4910,Nc1ccc(-c2ccc(-c3cc(NCc4cccnc4)n4nccc4n3)cc2)cc1
7,37,NC(=O)c1ccc(-c2ccc(-c3cc(NCc4cccnc4)n4ncc(Br)c4n3)cc2)cc1
8,31,CCc1cnn2c(NCc3cccnc3)cc(-c3ccc(-c4ccc(C(N)=O)c(O)c4)cc3)nc12
9,5530,COc1cc(-c2ccc(-c3cc(NCc4cccnc4)n4nccc4n3)cc2)ccc1C(N)=O
